Data reported in PubChem BioAssay AID1919015 (Molecular Pharmacology Branch, DTP, NCI, 2023).

Tested on: OVCAR-5 complex spheroids with HUVEC/MSC, viability, % test/control
Experiment: Anticancer human tumor OVCAR-5 cell line growth inhibition [AhR];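 note: spheroids exposed to compounds for 7 days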;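 for viability, T/C: 100% = DMSO vehicle control wells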
Conditions: for IC50: curve of first compound; for viability, T/C: stronger effect = lower value
How it was run: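 Complex tumor spheroids co-cultured with HUVEC and human MSC stroma; AhR antagonists tested in combination with standard-of-care and investigational agents. Top concentration at or near clinical Cmax (else 10 microM), half-log dilutions; growth expressed as percent test/control.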

[1] = second compound 0.1 µM, first compound 0.0316 µM
[2] = second compound 0.1 µM, first compound 0.1 µM
[3] = second compound 0.316 µM, first compound 0.0316 µM
[4] = second compound 0.316 µM, first compound 0.1 µM
[5] = second compound 1 µM, first compound 0.0316 µM
[6] = second compound 1 µM, first compound 0.1 µM
[7] = second compound 3.16 µM, first compound 0.0316 µM
[8] = second compound 3.16 µM, first compound 0.1 µM
[9] = second compound 10 µM, first compound 0.0316 µM
[10] = second compound 10 µM, first compound 0.1 µM

CC1COCCN1c1cc(C2(S(C)(=N)=O)CC2)nc(-c2ccnc3[nH]ccc23)n1 (stereo not given) + Cc1ccccc1N=Nc1ccc(NC(=O)c2ccnn2C)c(C)c1
IC50 (second compound 0.1 µM): 7.02 µM
IC50 (second compound 0.316 µM): 7.54 µM
IC50 (second compound 1 µM): 9.32 µM
IC50 (second compound 3.16 µM): 9.73 µM
IC50 (second compound 10 µM): > 10 µM
viability, T/C [1]: 107%
viability, T/C [2]: 108%
viability, T/C (second compound 0.1 µM, first compound 0.316 µM): 105%
viability, T/C (second compound 0.1 µM, first compound 1 µM): 99.7%
viability, T/C (second compound 0.1 µM, first compound 3.16 µM): 74.8%
viability, T/C (second compound 0.1 µM, first compound 10 µM): 38.9%
viability, T/C [3]: 111%
viability, T/C [4]: 111%
viability, T/C (second compound 0.316 µM, first compound 0.316 µM): 108%
viability, T/C (second compound 0.316 µM, first compound 1 µM): 100%
viability, T/C (second compound 0.316 µM, first compound 3.16 µM): 78.9%
viability, T/C (second compound 0.316 µM, first compound 10 µM): 40.6%
viability, T/C [5]: 114%
viability, T/C [6]: 115%
viability, T/C (second compound 1 µM, first compound 0.316 µM): 115%
viability, T/C (second compound 1 µM, first compound 1 µM): 105%
viability, T/C (second compound 1 µM, first compound 3.16 µM): 83.3%
viability, T/C (second compound 1 µM, first compound 10 µM): 47.8%
viability, T/C [7]: 111%
viability, T/C [8]: 121%
viability, T/C (second compound 3.16 µM, first compound 0.316 µM): 116%
viability, T/C (second compound 3.16 µM, first compound 1 µM): 106%
viability, T/C (second compound 3.16 µM, first compound 3.16 µM): 85.9%
viability, T/C (second compound 3.16 µM, first compound 10 µM): 49%
viability, T/C [9]: 107%
viability, T/C [10]: 110%
viability, T/C (second compound 10 µM, first compound 0.316 µM): 111%
viability, T/C (second compound 10 µM, first compound 1 µM): 105%
viability, T/C (second compound 10 µM, first compound 3.16 µM): 85.4%
viability, T/C (second compound 10 µM, first compound 10 µM): 50.8%

Cn1ncnc1C1c2n[nH]c(=O)c3cc(F)cc(c23)NC1c1ccc(F)cc1 (stereo not given) + Cc1ccccc1N=Nc1ccc(NC(=O)c2ccnn2C)c(C)c1
IC50 (second compound 0.1 µM): > 0.1 µM
IC50 (second compound 0.316 µM): > 0.1 µM
IC50 (second compound 1 µM): > 0.1 µM
IC50 (second compound 3.16 µM): > 0.1 µM
IC50 (second compound 10 µM): > 0.1 µM
viability, T/C (second compound 0.1 µM, first compound 0.000316 µM): 105%
viability, T/C (second compound 0.1 µM, first compound 0.001 µM): 107%
viability, T/C (second compound 0.1 µM, first compound 0.00316 µM): 101%
viability, T/C (second compound 0.1 µM, first compound 0.01 µM): 96.2%
viability, T/C [1]: 94.5%
viability, T/C [2]: 90.9%
viability, T/C (second compound 0.316 µM, first compound 0.000316 µM): 108%
viability, T/C (second compound 0.316 µM, first compound 0.001 µM): 110%
viability, T/C (second compound 0.316 µM, first compound 0.00316 µM): 104%
viability, T/C (second compound 0.316 µM, first compound 0.01 µM): 102%
viability, T/C [3]: 96.6%
viability, T/C [4]: 98.8%
viability, T/C (second compound 1 µM, first compound 0.000316 µM): 111%
viability, T/C (second compound 1 µM, first compound 0.001 µM): 113%
viability, T/C (second compound 1 µM, first compound 0.00316 µM): 111%
viability, T/C (second compound 1 µM, first compound 0.01 µM): 102%
viability, T/C [5]: 101%
viability, T/C [6]: 102%
viability, T/C (second compound 3.16 µM, first compound 0.000316 µM): 110%
viability, T/C (second compound 3.16 µM, first compound 0.001 µM): 116%
viability, T/C (second compound 3.16 µM, first compound 0.00316 µM): 118%
viability, T/C (second compound 3.16 µM, first compound 0.01 µM): 109%
viability, T/C [7]: 101%
viability, T/C [8]: 108%
viability, T/C (second compound 10 µM, first compound 0.000316 µM): 106%
viability, T/C (second compound 10 µM, first compound 0.001 µM): 105%
viability, T/C (second compound 10 µM, first compound 0.00316 µM): 102%
viability, T/C (second compound 10 µM, first compound 0.01 µM): 105%
viability, T/C [9]: 102%
viability, T/C [10]: 102%
